Legend:
cells = assay: growth rate of cells cultured in DMEM media with the labeling compounds; type: cell-based; conditions: DMEM media containing lovastatin, FPP-azide/F-azide-OH, and GG-OH together
Source text: Several lines of evidence indicate that F-azide modified proteins maintain the major characteristics of naturally farnesylated proteins. First, F-azide-modified Ras retains GTPase activity. Second, F-azide modification induced Ras' membrane association.

Ras [1] = assay: mobility-shift assay of Ras in labeled COS-1 cells (SDS-PAGE/Western blot); type: cell-based; conditions: 24 h; for effect on lovastatin-induced mobility shift of Ras: COS-1 cells treated with lovastatin
Protocol: FIG. 3. Detection of F-azide modified Ras and HDJ-2 by mobility-shift assay. Mobility-shift assay of Ras (A) and HDJ-2 (B). COS-1 cells were labeled with the indicated compounds for 24 h, the cell lysate were resolved in SDS-PAGE and probed using anti-Ras and anti-HDJ-2 antibodies, respectively. The letters, “u” and “p”, indicate the unmodified and isoprenylated forms of the protein, respectively.
To determine if the cell will process exogenous azido-farnesyl substrates, metabolic labeling of cells was carried out with synthetic substrates, either FPP azide or F-azide-OH, and mobility-shift assays were performed for Ras and HDJ-2 in order to determine if they are posttranslationally modified. Unprocessed Ras and HDJ-2 move more slowly than their farnesylated isoforms, therefore allowing separation in SDS-PAGE and subsequent detection by Western blotting analysis (James, 1994; Adjei, 2000).
COS-1 cells were grown in Dulbecco's modified Eagle's medium supplemented with 10% fetal bovine serum, 1% penicillin/streptomycin. When cells reached to 70% confluence, lovastatin was added and incubated for suitable amount of time prior to adding FPP azide.
Cells were harvested and lysed in 1 ml of lysis buffer (50 mM HEPES pH 7.6, 250 mM sodium chloride, 1.5 mM magnesium chloride, 1 mM EDTA, 10% (v/v) glycerol, 1% Triton X-100, and protease inhibitor cocktail (Roche Molecular Biochemicals, Indianapolis, Ind.)). The protein lystes were resolved in a 15% SDS-polyacrylamide gel, and transferred to PVDF membrane. The membrane was washed with TBST buffer (0.1% Tween 20, 150 mM NaCl, 25 mM TrisCl, pH 7.5), blocked for 2 h with a solution containing 5% (w/v) dried nonfat milk in TTBS, and immunoblotted for 2 h with an antibody in a blocking buffer (5% BSA in TTBS). After washing 4 times with TBST with changes every 15 min., the membrane was incubated with HRP-conjugated secondary antibody in TBST (1:5000 dilution) with 5% non-fat milk. The membrane was washed again for 4 times in TBST and visualized by enhanced chemiluminescence.

COS cells = assay: global detection of F-azide modified proteins by Western blotting after conjugation to biotinylated phosphine capture reagent; type: cell-based; conditions: COS cells dosed with lovastatin and substrate; signals competed away by 0.1 mM D-biotin
Protocol: FIG. 4. Global detection of F-azide modified proteins by Western blotting analysis. COS cells were labeled with DMSO, or FPP N3 with or without lovastatin, as indicated, for 24 h. The protein lysates from the cells were precipitated by acetone/TCA method, redissolved in a buffer containing 2% SDS and PBS. The resulting solution was conjugated to biotinylated phosphine capture reagents or not, precipitated by acetone/TCA method again. The protein pellet was redissolved in 1×SDS sample buffer, resolved in SDS-PAGE, and detected by Western blotting analysis using streptavidin-conjugated HRP with or without biotin.
To further test whether proteins could be modified by F-azide and subsequently detected, Western blotting analysis was carried out in order to detect F-azide modified proteins. The protein whole-cell lysate from the cells dosed with lovastatin and FPP azide was subjected to conjugation reaction using biotinylated phosphine capture reagent. The resulting lysate was resolved using a SDS-PAGE gel and the biotinylated proteins detected by Western blotting analysis using HRP-conjugated streptavidin.
COS-1 cells were grown in Dulbecco's modified Eagle's medium supplemented with 10% fetal bovine serum, 1% penicillin/streptomycin. When cells reached to 70% confluence, lovastatin was added and incubated for suitable amount of time prior to adding FPP azide. […]

Ras [2] = assay: Ras localisation, cytosol versus membrane association; type: cell-based; conditions: for membrane association of Ras: cells treated with lovastatin plus azido-farnesyl substrate
Source text: Farnesylated Ras protein is plasma-membrane associated while the unprocessed isoform is mainly located in cytosol.

FTase = FTase (Homo sapiens, UniProt P49354+P49356); assay: in vitro farnesylation reaction of RC peptide (KKFFCAIS) with FTase, MALDI-TOF readout; type: biochemical
Protocol: FIG. 2. FPP azide is a substrate for in vitro farnesylation reaction. MALDI-TOF mass spectra of RC peptide before (A) and after (B) in vitro farnesylation reaction. One hundred pmol RC-peptide (KKFFCAIS) were mixed with 3000 pmol FPP azide and 35 pmol FTase in 7 μl reaction buffer and incubated at 30° C. for 10 h. The F-azide modified RC-peptide was confirmed by mass spectrometry (m/z, 1191).
To determine whether farnsyltransferase can use FPP azide as a substrate for protein farnesylation, an in-vitro enzymatic reaction was carried out between a CAAX-box containing peptide (RC peptide, KKFFCAIS) and FPP azide.
The molecular masses of the peptide prior to and after enzymatic reaction were determined by MALDI-TOF mass spectrometry. F-azide-modified peptide was detected after enzymatic reaction (m/z, 1191 Da, a mass increase of 246 Da over RC peptide) (FIG. 2).
In a parallel study, an enzymatic reaction was carried out with FPP, the natural substrate for protein farnesylation.

Ras [3] = assay: immunoprecipitation of Ras, conjugation to biotinylated phosphine capture reagent and Western blotting; type: cell-based; conditions: cells dosed with FPP-azide versus control cells
Source text: The resulting immunocomplexes were resolubilized in 1×SDS sample buffer and then subjected to conjugation reaction using biotinylated phosphine capture reagents, respectively. The free biotinylated capture reagent was removed by a desalting column, resolved in SDS-PAGE, and then detected by Western blotting analysis […]. Protein signals corresponding molecular weights of HDJ-2 and Ras were detected from the cells dosed with FPP-azide but not in the control cells.

FTase, sequence (P49356 whole entry, one chain of several): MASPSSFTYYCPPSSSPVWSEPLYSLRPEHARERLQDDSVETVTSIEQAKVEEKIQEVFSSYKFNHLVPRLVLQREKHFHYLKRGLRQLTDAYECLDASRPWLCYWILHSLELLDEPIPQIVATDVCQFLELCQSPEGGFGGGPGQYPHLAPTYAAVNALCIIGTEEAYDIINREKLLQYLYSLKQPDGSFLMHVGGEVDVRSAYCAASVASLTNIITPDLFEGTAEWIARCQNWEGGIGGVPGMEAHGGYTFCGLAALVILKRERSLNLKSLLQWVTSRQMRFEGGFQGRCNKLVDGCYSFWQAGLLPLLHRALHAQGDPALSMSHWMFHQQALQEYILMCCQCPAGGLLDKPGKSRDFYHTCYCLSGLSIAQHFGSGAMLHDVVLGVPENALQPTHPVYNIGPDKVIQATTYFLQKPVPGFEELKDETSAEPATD

Row | Compound | growth rate of cells compared with cells cultured without the compounds (cells) | effect on lovastatin-induced mobility shift of Ras (Ras [1]) | F-azide modified proteins detected by Western blotting with HRP-conjugated streptavidin (COS cells) | membrane association of Ras (Ras [2]) | mobility shift of Ras (Ras [1]; COS-1 cells, compound alone) | localisation of Ras (Ras [2]; cells treated with lovastatin) | substrate for the farnesyltransfer reaction in vitro (FTase; RC peptide, FTase) | reaction rate with RC peptide compared with FPP (FTase; in vitro enzymatic reaction, parallel study with natural substrate FPP) | protein signal at the molecular weight of Ras (Ras [3])
1 | CC(=CCO)CCC=C(C)CCC=C(C)CN=[N+]=[N-] [F-azide-OH, azido-farnesyl alcohol] | comparable growth rate | reversed the mobility shift | detection of multiple proteins | restore membrane association | – | – | – | – | –
2 | CC(C)=CCC/C(C)=C/CC/C(C)=C/CC/C(C)=C/CO [GG-OH, geranylgeranyl alcohol, reference compound] | – | not affect the mobility shifts | – | – | – | – | – | – | –
3 | CC[C@H](C)C(=O)O[C@H]1C[C@@H](C)C=C2C=C[C@H](C)[C@H](CC[C@@H]3C[C@@H](O)CC(=O)O3)[C@H]21 [lovastatin, reference compound] | – | – | – | – | induce mobility shift | mainly detected in cytosol | – | – | –
4 | azido farnesyl diphosphate [FPP azide] | comparable growth rate | reversed the mobility shift | detection of multiple proteins | restore membrane association | – | – | good substrate | somewhat faster | detected

Source: US7070941B2, “Methods and compositions for tagging via azido substrates” (Board of Regents, The University of Texas System, priority 2003, dated 2006)
